Laboratory results taken from patent US9856254B2, “Alkoxy substituted imidazoquinolines” (3M INNOVATIVE PROPERTIES COMPANY, priority 2003, dated 2018).
Several values for one entry are separate records, joined by “and”; a condition that tells them apart may be missing. Equal values may be shown once. Where a name gives a salt, the structure may show the parent alone.

| melting point | Structure (SMILES) |
| --- | --- |
| 179.5 to 181 °C | CCCn1c(COCC)nc2c(N)nc3ccc(OC4CCN(C(=O)OC(C)(C)C)CC4)cc3c21 [Example 410, tert-Butyl 4-{[4-amino-2-(ethoxymethyl)-1-propyl-1H-imidazo[4,5-c]quinolin-8-yl]oxy}piperidine-1-carboxylate] |
| 178 to 182 °C | CCCc1nc2c(N)nc3cc(OC4CCOC4)ccc3c2n1CC(C)C (centres unmarked) [Example 55, 1-(2-Methylpropyl)-2-propyl-7-(tetrahydrofuran-3-yloxy)-1H-imidazo[4,5-c]quinolin-4-amine] |
| 191 to 192 °C | CCCn1c(COCC)nc2c(N)nc3cc(OCCN4CCOCC4)ccc3c21 [Example 649, 2-(Ethoxymethyl)-7-(2-morpholin-4-ylethoxy)-1-propyl-1H-imidazo[4,5-c]quinolin-4-amine] |
| 194 to 195 °C | CCCn1c(COCC)nc2c(N)nc3cc(OC4CCN(C(=O)OC(C)(C)C)CC4)ccc3c21 [Example 415, tert-Butyl 4-{[4-amino-2-(ethoxymethyl)-1-propyl-1H-imidazo[4,5-c]quinolin-7-yl]oxy}piperidine-1-carboxylate] |
| 209 to 211 °C | CCOCc1nc2c(N)nc3cc(OCC(=O)N4CCOCC4)ccc3c2n1CC(C)(C)O [Example 646, 1-[4-Amino-2-(ethoxymethyl)-7-(2-morpholin-4-yl-2-oxoethoxy)-1H-imidazo[4,5-c]quinolin-1-yl]-2-methylpropan-2-ol] |
| 163 to 165 °C | CCOCc1nc2c(N)nc3cc(OCCN)ccc3c2n1CC(C)(C)O [Example 654, 1-[4-Amino-7-(2-aminoethoxy)-2-(ethoxymethyl)-1H-imidazo[4,5-c]quinolin-1-yl]-2-methylpropan-2-ol] |
| 205 to 209 °C | CCOCc1nc2c(N)nc3cc(OCCCCCCNC(=O)NC(C)C)ccc3c2n1CC(C)(C)NC(=O)NC(C)C [Example 369, N-(2-{4-Amino-2-(ethoxymethyl)-7-[(6-{[(isopropylamino)carbonyl]amino}hexyl)oxy]-1H-imidazo[4,5-c]quinolin-1-yl}-1,1-dimethylethyl)-N′-isopropylurea] |
| 170 to 171 °C | CCCn1c(CCOC)nc2c(N)nc3cc(OCCCS(C)(=O)=O)ccc3c21 [Example 392, 2-(2-Methoxyethyl)-7-[3-(methylsulfonyl)propoxy]-1-propyl-1H-imidazo[4,5-c]quinolin-4-amine] |
| 223 to 225 °C | CCc1nc2c(N)nc3cc(OCCNC(=O)NC(C)C)ccc3c2n1CC1CCOCC1 [Example 651, N-(2-{[4-Amino-2-ethyl-1-(tetrahydro-2H-pyran-4-ylmethyl)-1H-imidazo[4,5-c]quinolin-7-yl]oxy}ethyl)-N′-isopropylurea] |
| 192 to 194 °C | CCCn1c(CCOC)nc2c(N)nc3cc(OC4CCOC4)ccc3c21 (centres unmarked) [Example 56, 2-(2-Methoxyethyl)-1-propyl-7-(tetrahydrofuran-3-yloxy)-1H-imidazo[4,5-c]quinolin-4-amine] |
| 167 to 169 °C | CCCn1c(COCC)nc2c(N)nc3ccc(OCCCCCCNC(=O)NC(C)C)cc3c21 [Example 408, N-(6-{[4-Amino-2-(ethoxymethyl)-1-propyl-1H-imidazo[4,5-c]quinolin-8-yl]oxy}hexyl)-N′-isopropylurea] |
| 110 to 120 °C | CCOCc1nc2c(N)nc3cc(OCCCCCCNC(=S)NC(C)C)ccc3c2n1CC(C)(C)NC(C)=O [Example 368, N-(2-{4-Amino-2-(ethoxymethyl)-7-[(6-{[(isopropylamino)carbonothioyl]amino}hexyl)oxy]-1H-imidazo[4,5-c]quinolin-1-yl}-1,1-dimethylethyl)acetamide] |
| 223 to 225 °C | CCCn1c(COCC)nc2c(N)nc3ccc(OCC(=O)N4CCS(=O)(=O)CC4)cc3c21 [Example 565, 8-[2-(1,1-Dioxidothiomorpholin-4-yl)-2-oxoethoxy]-2-(ethoxymethyl)-1-propyl-1H-imidazo[4,5-c]quinolin-4-amine] |
| 236.5 to 239 °C | CCCn1c(COCC)nc2c(N)nc3ccc(OC4CCN(C(=O)NC(C)C)CC4)cc3c21 [Example 412, 4-{[4-Amino-2-(ethoxymethyl)-1-propyl-1H-imidazo[4,5-c]quinolin-8-yl]oxy}-N-isopropylpiperidine-1-carboxamide] |
| 196 to 197 °C | CCCn1c(COC)nc2c(N)nc3ccc(OCCCN4CCN(c5ccccn5)CC4)cc3c21 [Example 657, 2-(Methoxymethyl)-1-propyl-8-[3-(4-pyridin-2-ylpiperazin-1-yl)propoxy]-1H-imidazo[4,5-c]quinolin-4-amine] |
| 176 to 178 °C | CCCn1c(COCC)nc2c(N)nc3ccc(OC4CCNCC4)cc3c21 [Example 411, 2-(Ethoxymethyl)-8-(piperidin-4-yloxy)-1-propyl-1H-imidazo[4,5-c]quinolin-4-amine] |
| 155 to 157 °C | CCCn1c(COC)nc2c(N)nc3ccc(OCCC4CCCN4C)cc3c21 (centres unmarked) [Example 567, 2-(Methoxymethyl)-8-[2-(1-methylpyrrolidin-2-yl)ethoxy]-1-propyl-1H-imidazo[4,5-c]quinolin-4-amine] |
| 161 to 163 °C | CCOCc1nc2c(N)nc3cc(OCCN4CCOCC4)ccc3c2n1CC(C)(C)O [Example 647, 1-[4-Amino-2-(ethoxymethyl)-7-(2-morpholin-4-ylethoxy)-1H-imidazo[4,5-c]quinolin-1-yl]-2-methylpropan-2-ol] |

More lines, now with the values behind:

| Structure (SMILES) | melting point |
| --- | --- |
| CCCn1c(COCC)nc2c(N)nc3ccc(OCCNC(=O)C(C)C)cc3c21 (as salt: hydrochloride) [Example 5, N-(2-{[4-Amino-2-(ethoxymethyl)-1-propyl-1H-imidazo[4,5-c]quinolin-8-yl]oxy}ethyl)-2-methylpropanamide hydrochloride] | 240 to 242 °C |
| CCCCc1nc2c(N)nc3ccc(OCC(=O)N(CCOC)CCOC)cc3c2n1C [Example 36, 2-[(4-Amino-2-butyl-1-methyl-1H-imidazo[4,5-c]quinolin-8-yl)oxy]-N,N-bis(2-methoxyethyl)acetamide] | 125 to 128 °C |
| Cc1nc2c(N)nc3cc(OCCC4CCN(C(=O)N5CCOCC5)CC4)ccc3c2n1CC(C)C [Example 28, 2-Methyl-1-(2-methylpropyl)-7-{2-[1-(morpholin-4-ylcarbonyl)piperidin-4-yl]ethoxy}-1H-imidazo[4,5-c]quinolin-4-amine] | 205 to 208 °C |
| Cc1nc2c(N)nc3ccc(OCC(=O)O)cc3c2n1C [Example 44, 2-[(4-Amino-1,2-dimethyl-1H-imidazo[4,5-c]quinolin-8-yl)oxy]acetic acid] | 298 °C (dec.) |
| Cc1nc2c(N)nc3cc(OCCNC(=O)N4CCOCC4)ccc3c2n1CC(C)C [Example 19, N-(2-{[4-Amino-2-methyl-1-(2-methylpropyl)-1H-imidazo[4,5-c]quinolin-7-yl]oxy}ethyl)morpholine-4-carboxamide] | 215 to 219 °C (dec.) |
| CCCn1c(COCC)nc2c(N)nc3ccc(OCCNC(=O)C4CCCO4)cc3c21 (centres unmarked) [Example 6, N-(2-{[4-Amino-2-(ethoxymethyl)-1-propyl-1H-imidazo[4,5-c]quinolin-8-yl]oxy}ethyl)tetrahydrofuran-2-carboxamide] | 202.5 to 204.5 °C |
| CCCn1c(COCC)nc2c(N)nc3ccc(OCCN)cc3c21 [Example 2, 8-(2-Aminoethoxy)-2-ethoxymethyl-1-propyl-1H-imidazo[4,5-c]quinolin-4-amine] | 157 to 159 °C |
| Cc1nc2c(N)nc3cc(OCCC4CCN(C(=O)C(C)C)CC4)ccc3c2n1CC(C)C [Example 26, 1-(4-{2-[4-Amino-2-methyl-1-(2-methylpropyl)-1H-imidazo[4,5-c]quinolin-7-yloxy]ethyl}piperidin-1-yl)-2-methylpropan-1-one] | 205.1 to 207.1 °C |
| CCCn1c(COCC)nc2c(N)nc3ccc(OCCNS(C)(=O)=O)cc3c21 [Example 3, N-[2-(4-Amino-2-ethoxymethyl-1-propyl-1H-imidazo[4,5-c]quinolin-8-yloxy)ethyl]methanesulfonamide] | 178 to 179.5 °C and 182 to 184.5 °C |
| CCOCc1nc2c(N)nc3cc(OC4CCNCC4)ccc3c2n1CC(O)CO (centres unmarked) (as salt: hydrochloride) | 278 to 280 °C |
| CCCn1c(COCC)nc2c(N)nc3ccc(OCCNC(=O)N4CCOCC4)cc3c21 [Example 4, N-(2-{[4-Amino-2-(ethoxymethyl)-1-propyl-1H-imidazo[4,5-c]quinolin-8-yl]oxy}ethyl)morpholine-4-carboxamide] | 203 to 208 °C |
| CCCc1nc2c(N)nc3cc(OCC(=O)c4ccccc4)ccc3c2n1CC(C)C [Example 1, 2-(4-Amino-1-(2-methylpropyl)-2-propyl-1H-imidazo[4,5-c]quinolin-7-yloxy)-1-phenylethanone] | 178 to 180 °C |
| CCCc1nc2c(N)nc3cc(OCCCNS(C)(=O)=O)ccc3c2n1CC(C)C [Example 11, N-{3-[4-Amino-1-(2-methylpropyl)-2-propyl-1H-imidazo[4,5-c]quinolin-7-yloxy]propyl}methanesulfonamide] | 166.5 to 168.5 °C |
| CCCCc1nc2c(N)nc3ccc(OCCC4CCNCC4)cc3c2n1C [Example 38, 2-Butyl-1-methyl-8-(2-piperidin-4-ylethoxy)-1H-imidazo[4,5-c]quinolin-4-amine] | 210 to 212 °C |
| CCCc1nc2c(N)nc3cc(OCCCNC(=O)c4cccnc4)ccc3c2n1CC(C)C [Example 16, N-{3-[4-Amino-1-(2-methylpropyl)-2-propyl-1H-imidazo[4,5-c]quinolin-7-yloxy]propyl}nicotinamide] | 172 to 174 °C |
| CCCCc1nc2c(N)nc3ccc(OCCCCC(=O)N4CCOCC4)cc3c2n1C (as salt: trifluoroacetate) [Example 31, 2-Butyl-1-methyl-8-[(5-morpholin-4-yl-5-oxopentyl)oxy]-1H-imidazo[4,5-c]quinolin-4-amine trifluoroacetate] | 155.5 to 156.2 °C |
| CCCc1nc2c(N)nc3cc(OCCCNS(=O)(=O)CCc4cccc5ccccc45)ccc3c2n1CC(C)C [Example 14, N-(3-{[4-Amino-1-(2-methylpropyl)-2-propyl-1H-imidazo[4,5-c]quinolin-7-yl]oxy}propyl)-2-(1-naphthyl)ethanesulfonamide] | 164 to 168 °C |
